Reference: patent publication US20140206017A1, “LYSYL OXIDASE-LIKE 2 ASSAY AND METHODS OF USE THEREOF” (priority 2011, published 2014)
Several values for one entry are separate records, joined by “and”; a condition that tells them apart may be missing. Equal entries are not always repeated. Structures can show the parent of a compound that is named as a salt.

Key:
[1] = test system: liver fibrosis in subjects with chronic hepatitis B (CHB); experiment: Liver biopsy (Ishak fibrosis score) in CHB subjects before and after 240 weeks of TDF; format: in vivo, human; conditions: for Chance of regression of cirrhosis at week 240: cirrhotic subjects
Protocol: Serum LOXL2 levels were assessed in subjects with chronic hepatitis B (CHB) and liver fibrosis, both before treatment and after 240 weeks of treatment with 300 mg tenofovir disoproxil fumarate (TDF). Liver biopsies were taken from 348 human subjects with CHB, prior to treatment and after 240 weeks of treatment with TDF. The biopsies were scored by pathologists using the Ishak scale for assessment of fibrosis. […] Of the 96 subjects who began the study with biopsy-proven cirrhosis, 74% had regression of cirrhosis after 240 weeks of treatment. […] At week 240 following treatment, 42 of these 81 subjects had cirrhosis regression, 16 had persistent cirrhosis, 2 had progressed to cirrhosis over the course of treatment, 18 were non-cirrhotic subjects with no change in fibrosis, and 3 were non-cirrhotic subjects with at least a 2-point reduction in fibrosis as measured by Ishak.

serum LOXL2 = experiment: Serum LOXL2 by ELISA at baseline and week 240 of TDF treatment in CHB subjects; format: in vivo, human; conditions: for Median serum LOXL2: LOQ = 440 pg/mL
From the text: At week 240 following treatment, 42 of these 81 subjects had cirrhosis regression, 16 had persistent cirrhosis, 2 had progressed to cirrhosis over the course of treatment, 18 were non-cirrhotic subjects with no change in fibrosis, and 3 were non-cirrhotic subjects with at least a 2-point reduction in fibrosis as measured by Ishak.

cancer = experiment: Cancer patients treated with anti-LOXL2 antibody AB0024: time to progression; format: in vivo, human; conditions: individual cancer patients
From the text: Blood samples were obtained at Day 1 on which anti-LOXL2 treatment began (sample taken before anti-LOXL2 treatment); and on days 29 and 57 following the beginning of anti-LOXL2 treatment.

LOXL2 = molecular target: T1, LOXL2 (Homo sapiens, UniProt Q9Y4K0); experiment: LOXL2 immunoassay of plasma/serum from patients receiving AB0024; format: in vivo; conditions: samples day 1 (pre-dose), 29 and 57
T1 construct: from tissue; host or cells: plasma and serum of human cancer patients
T1 sequence (Q9Y4K0 26-774): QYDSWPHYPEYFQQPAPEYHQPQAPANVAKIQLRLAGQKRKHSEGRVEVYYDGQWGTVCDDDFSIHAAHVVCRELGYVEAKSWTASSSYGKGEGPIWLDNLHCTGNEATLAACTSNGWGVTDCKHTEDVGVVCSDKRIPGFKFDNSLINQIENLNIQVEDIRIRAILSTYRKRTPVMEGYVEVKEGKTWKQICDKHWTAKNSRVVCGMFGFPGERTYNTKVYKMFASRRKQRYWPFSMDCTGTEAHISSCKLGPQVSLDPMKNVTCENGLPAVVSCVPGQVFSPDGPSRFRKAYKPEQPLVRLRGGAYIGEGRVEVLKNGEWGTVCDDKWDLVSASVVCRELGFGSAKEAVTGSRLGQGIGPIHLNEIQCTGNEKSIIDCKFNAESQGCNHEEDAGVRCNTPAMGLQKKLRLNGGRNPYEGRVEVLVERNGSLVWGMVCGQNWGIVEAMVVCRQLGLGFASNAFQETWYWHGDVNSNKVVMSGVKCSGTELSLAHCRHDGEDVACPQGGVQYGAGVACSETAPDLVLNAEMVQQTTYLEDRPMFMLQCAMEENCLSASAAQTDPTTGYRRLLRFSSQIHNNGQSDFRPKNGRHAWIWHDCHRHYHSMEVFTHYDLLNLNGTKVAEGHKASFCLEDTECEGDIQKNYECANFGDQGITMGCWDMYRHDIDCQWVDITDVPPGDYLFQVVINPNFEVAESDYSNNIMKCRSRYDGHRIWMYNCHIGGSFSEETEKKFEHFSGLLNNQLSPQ
Protocol: Standard single-spot uncoated electrode plates from MesoScale Discovery (MSD) (cat #L15XA-3) were coated overnight at 4° C. with a 30 μl volume of a solution of 3 μg/ml rabbit anti-human-LOXL2 polyclonal antibody formulated in phosphate-buffered saline (PBS). After coating, the wells of the plates were blocked by addition of a solution of 5% (w/v) Blocker A (MSD cat#R93AA-1) in PBS. After the blocking step, plates were washed 3 times in PBS containing 0.05% Tween-20 non-ionic detergent, using an automated plate washer. Human samples to be tested (serum or plasma) were prepared separately by diluting them 1:4 in PBS (1 part serum, 3 parts PBS). Samples were then added to each well of the plate. Samples were incubated with rotary shaking (300-600 rpm) for 2-3 hours at room temperature. After sample binding, the plates were again washed 3 times in PBS containing 0.05% Tween-20 detergent, using an automated plate washer. […]
1× Read Buffer T with Surfactants (MSD cat#R92TC-2) was added to each well, followed by immediate measurement of the plate on the MSD SectorImager 2400 instrument.
Test human samples were given a relative quantitative value of LOXL2 by comparison to the calibrator curve on the same assay plate, comprised of purified recombinant human LOXL2 protein (R&D Systems) added in known concentrations to human serum or plasma pooled from normal healthy donors. […]

[2] = Wk 240, Persistent Cirrhosis (n = 16), baseline 31%
[3] = baseline to Wk 240, Non-Cirrhotic No Δ (n = 18)
[4] = baseline to Wk 240, Persistent Cirrhosis (n = 16)
[5] = baseline to Wk 240, Reversed Cirrhosis (n = 42)

## CC(C)OC(=O)OCOP(=O)(CO[C@H](C)Cn1cnc2c(N)ncnc21)OCOC(=O)OC(C)C [TDF, tenofovir disoproxil fumarate]
[1]; 348 CHB subjects, 300 mg, 240 weeks
  Subjects with improvement in, or no progression of, liver fibrosis: 96.3%
[1]; baseline serum LOXL2 above 3000 pg/mL
  Chance of regression of cirrhosis at week 240: 29%
[1]; baseline serum LOXL2 between 1500 and 3000 pg/mL
  Chance of regression of cirrhosis at week 240: 70%
[1]; baseline serum LOXL2 less than 1500 pg/mL
  Chance of regression of cirrhosis at week 240: 88%
[1]; of the 60 patients with baseline cirrhosis, 240 weeks
  Patients with regression or improvement of Ishak fibrosis score: 72%
[1]; of the 96 subjects with biopsy-proven cirrhosis at start, after 240 weeks
  Subjects with regression of cirrhosis: 74%
Serum LOXL2; Week 240, Ishak Stage 0-3, N 56 (baseline 510.2, N 18)
  Mean serum LOXL2: 746.8 pg/mL
Serum LOXL2; Week 240, Ishak Stage 4-6, N 25 (baseline 3298.2, N 63)
  Mean serum LOXL2: 753.5 pg/mL
Serum LOXL2; Week 240, all subjects N 81 (baseline 2678.6)
  Mean serum LOXL2: 748.9 pg/mL
Serum LOXL2; Wk 240, Non-Cirrhotic No Δ (n = 18), baseline 6%
  Subjects with serum LOXL2 >3000 pg/mL: 0 (0%)
Serum LOXL2; Wk 240, Non-Cirrhotic No Δ (n = 18), baseline 22%
  Subjects with serum LOXL2 <LoD: 8 (44%)
Serum LOXL2; Wk 240, Non-Cirrhotic No Δ (n = 18), baseline 56%
  Subjects with serum LOXL2 <LoQ: 14 (78%)
Serum LOXL2; Wk 240, Non-Cirrhotic No Δ (n = 18), baseline 72%
  Subjects with serum LOXL2 <1000 pg/mL: 15 (83%)
Serum LOXL2; Wk 240, Non-Cirrhotic No Δ (n = 18), baseline 798.4
  Mean serum LOXL2: 436.8 pg/mL
Serum LOXL2; Wk 240, Non-Cirrhotic No Δ (n = 18), baseline <LOQ
  Median serum LOXL2: <LOQ
Serum LOXL2; Wk 240, Persistent Cirrhosis (n = 16), baseline 6%
  Subjects with serum LOXL2 <LoD: 2 (13%)
Serum LOXL2; Wk 240, Persistent Cirrhosis (n = 16), baseline 13%
  Subjects with serum LOXL2 <LoQ: 8 (50%)
Serum LOXL2; [2]
  Subjects with serum LOXL2 <1000 pg/mL: 14 (88%)
  Subjects with serum LOXL2 >3000 pg/mL: 0 (0%)
Serum LOXL2; Wk 240, Persistent Cirrhosis (n = 16), baseline 1863
  Median serum LOXL2: LOQ
Serum LOXL2; Wk 240, Persistent Cirrhosis (n = 16), baseline 9124.1
  Mean serum LOXL2: 603.8 pg/mL
Serum LOXL2; Wk 240, Reversed Cirrhosis (n = 42), baseline 2%
  Subjects with serum LOXL2 <LoD: 13 (31%)
Serum LOXL2; Wk 240, Reversed Cirrhosis (n = 42), baseline 5%
  Subjects with serum LOXL2 >3000 pg/mL: 3 (7%)
Serum LOXL2; Wk 240, Reversed Cirrhosis (n = 42), baseline 10%
  Subjects with serum LOXL2 <LoQ: 29 (69%)
Serum LOXL2; Wk 240, Reversed Cirrhosis (n = 42), baseline 48%
  Subjects with serum LOXL2 <1000 pg/mL: 35 (83%)
Serum LOXL2; Wk 240, Reversed Cirrhosis (n = 42), baseline 1073
  Median serum LOXL2: <LOQ
Serum LOXL2; Wk 240, Reversed Cirrhosis (n = 42), baseline 1355.0
  Mean serum LOXL2: 922.6 pg/mL
Serum LOXL2; [3]
  Subjects with Decrease in serum LOXL2: 9 (50%)
  Subjects with Increase in serum LOXL2: 2 (11%)
Serum LOXL2; [4]
  Subjects with Decrease in serum LOXL2: 14 (88%)
  Subjects with Increase in serum LOXL2: 0 (0%)
Serum LOXL2; [5]
  Subjects with Decrease in serum LOXL2: 37 (88%)
  Subjects with Increase in serum LOXL2: 5 (12%)
Serum LOXL2; baseline to week 240
  Cirrhotic subjects with a reduction in LOXL2 levels: 88%
Serum LOXL2; of the 81 subjects, baseline to week 240
  Subjects with a reduction in serum LOXL2 levels: 79%
Serum LOXL2; of the 81 subjects, each with baseline below limit of quantitation
  Subjects with no change in LOXL2 levels: 11%

B1: AB0024: humanized anti-LOXL2 monoclonal antibody; inhibits LOXL2 enzymatic activity, binds epitope within SRCR3-4; VH SEQ ID NO:8, VL SEQ ID NO:9 (antibody, V domains shown)
VH: QVQLVQSGAEVKKPGASVKVSCKASGYAFTYYLIEWVRQAPGQGLEWIGVINPGSGGTNYNEKFKGRATITADKSTSTAYMELSSLRSEDTAVYFCARNWMNFDYWGQGTTVTVSS
VL: DIVMTQTPLSLSVTPGQPASISCRSSKSLLHSNGNTYLYWFLQKPGQSPQFLIYRMSNLASGVPDRFSGSGSGTDFTLKISRVEAEDVGVYYCMQHLEYPYTFGGGTKVEIK
cancer; dose level 1 mpk
  Time to progression: 44 days and Stable and 57 days
cancer; dose level 3 mpk
  Time to progression: 38 days and 56 days and 42 days
cancer; dose level 10 mpk
  Time to progression: 57 days and 30 days and 51 days
LOXL2
  Effect of antibody administration on LOXL2 signal in plasma/serum: did not clear or mask the LOXL2 signal
